Measured values published in patent US8778966B2, “Quinolinone derivatives as PARP and tank inhibitors” (Janssen Pharmaceutica, NV, priority 2007, dated 2014).

What was measured:
Human PARP-1 enzyme = target: T1, Human PARP-1 enzyme (Homo sapiens, UniProt P09874); assay: In vitro Scintillation Proximity Assay (SPA) for PARP-1 inhibitory activity; type: biochemical; conditions: read-out: in vitro SPA assay PARP-1 pIC50 (converted)
T1 construct: purchased Trevigen
Experimental: Compounds of the present invention were tested in an in vitro assay based on SPA technology (proprietary to GE healthcare).
In principle, the assay relies upon the well established SPA technology for the detection of poly(ADP-ribosyl)ation of biotinylated target proteins, i.e histones. This ribosylation is induced using nicked DNA activated PARP-1 enzyme and [^3H]-nicotinamide adenine dinucleotide ([^3H]-NAD^+) as ADP-ribosyl donor.
Histones (type II-A, supplier: Sigma) were biotinylated using the biotinylation kit of Amersham and stored aliquoted at −20° C. A stock solution of 100 mg/ml SPA poly(vinyl toluene) (PVT) beads (supplier: Amersham) was made in PBS. A stock solution of 61.6 nM [^3H]-NAD^+ was made by adding [^3H]-NAD^+ (0.1 mCi/ml, supplier: Perkin Elmer) to incubation buffer (50 mM Tris/HCl, pH 8; 0.2 mM DTT; 4 mM MgCl2). A solution of 4 mM NAD^+ (supplier: Sigma) was made. Human PARP-1 enzyme was obtained from Trevigen. Biotinylated histones and PVT-SPA beads were mixed and pre-incubated for 30 min. at room temperature. PARP-1 enzyme (concentration was lot dependent) was mixed with the nicked DNA and the mixture was pre-incubated for 30 min. at 4° C. Equal parts of this histones/PVT-SPA beads solution and PARP-1 enzyme/DNA solution were mixed and 75 μl of this mixture together with 1 μl of compound in DMSO and 25 μl of [^3H]-NAD^+ was added per well into a 96-well microtiterplate. The final concentrations in the incubation mixture were 2 μg/ml for the biotinylated histones, 2 mg/ml for the PVT-SPA beads, 0.25 μg/ml for the nicked DNA and between 0.1-0.2 μg/ml for the PARP-1 enzyme. After incubation of the mixture for 20 min. at room temperature, the reaction was terminated by adding 100 μl of 4 mM NAD^+ in water (final concentration 2 mM) and plates were mixed. The beads were sedimented by centrifugation (10 min, 800 rpm). and plates transferred to a TopCountNXT™ (Packard) for scintillation counting, values were expressed as counts per minute (cpm). For each experiment, controls (containing PARP-1 enzyme and DMSO without compound), a blank incubation (containing DMSO but no PARP-1 enzyme, no DNA or compound) and samples (containing PARP-1 enzyme, DNA and compound dissolved in DMSO) were run in parallel. All compounds tested were dissolved and eventually further diluted in DMSO. A dose-response curve was made wherein the compounds were tested at concentrations between 10^−5M and 3×10^−9M. In each test, the blank value was subtracted from both the control and the sample values. The control sample represented maximal PARP-1 enzyme activity. For each sample, the amount of cpm was expressed as a percentage of the mean cpm value of the controls. When appropriate, IC50-values (concentration of the drug, needed to reduce the PARP-1 enzyme activity to 50% of the control) were computed using linear interpolation between the experimental points just above and below the 50% level. Herein the effects of test compounds are expressed as pIC50 (the negative log value of the IC50-value). As a reference compound, 4-amino-1,8-naphthalimide was included to validate the SPA assay.

PC-3 cells = assay: Antiproliferative activity, Alamar Blue assay, PC-3 cells; type: cell-based, human; conditions: for IC50: Homo sapiens, PC-3, PC3 cells, read-out: PC3 antiproliferative activity pIC50 (converted)
Experimental: Human prostate cancer PC-3 cells obtained from the ATCC were cultured in HAM′S F12 medium supplemented with 1 mM Sodium Pyruvate, 1.5 g/L Sodium Bicarbonate, 50 μg/ml gentamicin, non-essential amino acids and 10% fetal calf serum.
(§1) Resazurin was purchased from Aldrich (Prod. No. 199303). Potassium ferrocyanide, potassium ferricyanide, KH2PO4 and K2HPO4 were purchased from Sigma (Prod. Nos. P9387, P8131, P5655 and P8281, respectively).
(§2) Potassium Phosphate Buffer 0.1 M (PPB) was made as follows: 2.72 gram KH2PO4 and 13.86 gram K2HPO4 were dissolved in 500 ml milli-Q H2O, the pH was adjusted to pH 7.4 and the volume was brought to 1 litre with milli-Q H2O; the buffer was filter sterilised and stored at room temperature. Resazurin stock solution (PPB-A) was prepared fresh by dissolving 45 mg resazurin in 15 ml PBS. 30 mM potassium ferricyanide (PPB-B) was prepared by dissolving 0.987 gram potassium ferricyanide in 100 ml PPB. 30 mM potassium ferrocyanide (PPB-C) was prepared by dissolving 1.266 gram potassium ferrocyanide in 100 ml PPB.
(§3) Mixture of PPB-A, PPB-B and PPB-C was prepared by mixing equal volumes of the respective solutions. Resazurin work solution (herein termed “Alamar Blue” solution) was prepared by diluting said mixture 20×(vol/vol) in PPB and filter sterilising; the Alamar Blue solution could be kept at 4° C. for a maximum of 2 weeks.
(§4) For experiments in 384 wells plates the cells were seeded at a density of 4.5×10^3 cells/ml in Falcon 384-well culture plates (Life Technologies, Merelbeke, Belgium), black with clear bottom, in 45 μl culture medium. Cells were allowed to adhere to plastic for 24 hr. The tested compound was pre-diluted (1/50 in culture medium) and 5 μl pre-diluted compound was added to the wells. Following 4-day incubation, 10 μl of the Alamar Blue solution was added to each well and the cells were further incubated for 4 hrs (HCT116) or 24 hrs (PC-3) at 37° C. The fluorescence intensity was measured for each well on a Fluorescence plate reader (Fluorskan, Labsystems, 540 nm excitation and 590 nm emission)
(§5) The antiproliferative activity was calculated as percentage of remaining viable cells in treated versus control (untreated cells) conditions. Within an experiment, the result for each experimental condition is the mean of 3 replicate wells. When appropriate, the experiments were repeated to establish full concentration-response curves. When appropriate, IC50-values (concentration of the drug, needed to reduce cell growth to 50% of the control) were computed using probit analysis for graded data (Finney, D. J., Probit Analyses, 2nd Ed. Chapter 10, Graded Responses, Cambridge University Press, Cambridge 1962). Herein the effects of test compounds are expressed as pIC50 (the negative log value of the IC50-value) (see Table 2).

HCT116 cells = assay: Antiproliferative activity, Alamar Blue assay, HCT116 cells; type: cell-based, human; design: key to HCT116 antiproliferative activity pIC50: pIC50 = -log IC50 (IC50: conc. reducing growth to 50% of control); conditions: for IC50: Homo sapiens, HCT-116, HCT116 cells, read-out: HCT116 antiproliferative activity pIC50 (converted)
Experimental: Human colon carcinoma HCT116 cells obtained from the ATCC were cultured in McCoy's 5 A medium supplemented with 2 mM L-Glutamine, 50 μg/ml gentamicin and 10% heat inactivated fetal calf serum.
as §1, §2, §3, §4, §5

PC3 cells = assay: EB1 Comet (microtubule disruption) assay; type: cell-based, human; conditions: 1 hour treatment
Experimental: The Eb1 Comet assay relies on the detection of the Eb1 protein at the plus end of polymerizing microtubules (Mimori-Kiyosue, 2000) using indirect immunofluorescence. Disruption of microtubule dynamics through de-polymerization or stabilization results in a de-localization of Eb1 from the growing microtubule ends and this is visualized by the disappearance of Eb1 containing cytoplasmic foci.
Briefly, human prostate cancer PC3 cells obtained from the American Type Culture Collection were grown in 96-well plates (Greiner, cat. no. 655090) in HAM's F12 medium as recommended by the provider (ATCC). The cells were treated for 1 hour at 37° C. with compounds dissolved in DMSO (0.6% final DMSO concentration). The culture medium was then removed by aspiration and the cells were fixed by adding cold methanol (−20 C). After a 15 min. incubation at −20 C, the cells were washed twice with DPBS (Gibco) containing 0.5% Triton X-100. Mouse Eb1 antibody (BD Transduction Laboratories, cat. no. 610534) was added to the cells (1/250 dilution in DPBS containing 1% BSA) and incubated overnight at room temperature. The antibody was subsequently removed and the cells washed twice with DPBS, 0.5% Triton X-100. Secondary goat anti-mouse antibody conjugated to Alexa 488 fluorescent dye (Molecular Probes) was added at a 1/500 dilution in DPBS, 1% BSA and incubated for 1 hour at 37 C. The cells were washed twice with DPBS, 0.5% Triton X-100 and then DPBS containing 0.5% Triton X-100 and 1/5000 Hoechst 33342 (Molecular Probes) was added. Microscopy based Eb1 foci visualization was carried out using an IN Cell Analyser 1000 (Amersham Biosciences) using a 20× objective. Compound dependent microtubule disruption was visually determined by the disappearance in Eb1 foci. The lowest active concentration (LAC) was determined as the concentration where Eb1 foci were absent in at least 50% of the treated cells.

TANK-2 enzyme = target: T2, TANK-2 enzyme (Homo sapiens, UniProt Q9H2K2); assay: In vitro Scintillation Proximity Assay (SPA) for TANK-2 inhibitory activity; type: biochemical; conditions: read-out: in vitro SPA assay TANK-2 pIC50 (converted)
T2 construct: made in house
T2 sequence (Q9H2K2 1-1166): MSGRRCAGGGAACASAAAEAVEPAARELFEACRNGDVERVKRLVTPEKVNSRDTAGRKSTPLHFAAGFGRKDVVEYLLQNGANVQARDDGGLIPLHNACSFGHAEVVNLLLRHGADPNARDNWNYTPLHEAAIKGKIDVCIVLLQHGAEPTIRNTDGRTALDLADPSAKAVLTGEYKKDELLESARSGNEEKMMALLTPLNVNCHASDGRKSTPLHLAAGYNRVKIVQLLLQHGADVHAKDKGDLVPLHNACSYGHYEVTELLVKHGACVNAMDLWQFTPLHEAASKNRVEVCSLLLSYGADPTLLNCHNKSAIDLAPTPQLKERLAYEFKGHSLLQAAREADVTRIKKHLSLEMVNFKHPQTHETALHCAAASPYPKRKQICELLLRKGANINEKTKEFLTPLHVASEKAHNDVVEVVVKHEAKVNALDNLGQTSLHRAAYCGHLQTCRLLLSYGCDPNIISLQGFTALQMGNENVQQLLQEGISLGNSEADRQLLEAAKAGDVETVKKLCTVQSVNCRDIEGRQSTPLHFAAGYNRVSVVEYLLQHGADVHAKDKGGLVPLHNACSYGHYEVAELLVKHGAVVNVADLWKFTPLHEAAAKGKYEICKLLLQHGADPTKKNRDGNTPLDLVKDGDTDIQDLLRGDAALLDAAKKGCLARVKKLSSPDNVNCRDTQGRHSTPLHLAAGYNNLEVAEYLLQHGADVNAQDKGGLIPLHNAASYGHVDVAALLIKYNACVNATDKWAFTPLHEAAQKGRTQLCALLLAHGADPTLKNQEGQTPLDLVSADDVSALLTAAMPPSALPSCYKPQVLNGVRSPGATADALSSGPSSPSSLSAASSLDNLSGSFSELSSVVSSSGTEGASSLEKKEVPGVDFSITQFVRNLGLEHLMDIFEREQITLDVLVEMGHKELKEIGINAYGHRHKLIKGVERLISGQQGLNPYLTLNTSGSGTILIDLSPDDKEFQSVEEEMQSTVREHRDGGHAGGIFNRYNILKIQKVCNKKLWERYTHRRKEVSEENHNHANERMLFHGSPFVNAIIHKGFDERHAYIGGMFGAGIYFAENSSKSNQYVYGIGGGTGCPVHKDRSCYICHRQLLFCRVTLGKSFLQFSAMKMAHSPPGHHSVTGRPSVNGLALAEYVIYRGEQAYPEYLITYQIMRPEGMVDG
Experimental: Compounds of the present invention were tested in an in vitro assay based on SPA technology with Ni Flash plates (96 or 384 well). In principle, the assay relies upon SPA technology for the detection of auto-poly(ADP-ribosyl)ation of TANK-2 protein using [^3H]-nicotinamide adenine dinucleotide ([^3H]-NAD^+) as ADP-ribosyl donor.
A stock solution of 100 nM [3H]-NAD^+/NAD (0.1 mCi/ml, supplier: Perkin Elmer) and 0.25 μM NAD (Sigma) was made in assay buffer (60 mM Tris/HCl, pH 7.4; 0.9 mM DTT; 6 mM MgCl2). The TANK-2 enzyme was produced as described in EP1238063. 60 μl of assay buffer, together with 1 μl of compound in DMSO, 20 μl of [^3H]-NAD^+/NAD and 20 μl of TANK-2 enzyme (final concentration 8 μg/ml) was added per well into a 96-well Ni-coated flash plate (Perkin Elmer). After incubation of the mixture for 120 min. at room temperature, the reaction was terminated by adding 60 μl of stopsolution (42.6 mg NAD in 6 ml H2O). The plates were covered with a plate sealer and placed in a TopCountNXT™ (Packard) for scintillation counting. Values were expressed as counts per minute (cpm). For each experiment, controls (containing TANK-2 enzyme and DMSO without compound), a blank incubation (containing DMSO but no TANK-2 enzyme or compound) and samples (containing TANK-2 enzyme and compound dissolved in DMSO) were run in parallel. All compounds tested were dissolved and eventually further diluted in DMSO. In first instance, compounds were tested at a concentration of 10^−5M. […] In each test, the blank value was subtracted from both the control and the sample values. The control sample represented maximal TANK-2 enzyme activity. For each sample, the amount of cpm was expressed as a percentage of the mean cpm value of the controls. When appropriate, IC50-values (concentration of the drug, needed to reduce the TANK-2 enzyme activity to 50% of the control) were computed using linear interpolation between the experimental points just above and below the 50% level. Herein the effects of test compounds are expressed as pIC50 (the negative log value of the IC50-value). As reference compounds, 3-aminobenzamide and 4-amino-1,8-naphtalimide were included to validate the SPA assay. Herein the assay was described using 96-well plates. In the assay using 384-well plates the same final concentrations were used and volumes were adapted.

T1 sequence (P09874 whole entry): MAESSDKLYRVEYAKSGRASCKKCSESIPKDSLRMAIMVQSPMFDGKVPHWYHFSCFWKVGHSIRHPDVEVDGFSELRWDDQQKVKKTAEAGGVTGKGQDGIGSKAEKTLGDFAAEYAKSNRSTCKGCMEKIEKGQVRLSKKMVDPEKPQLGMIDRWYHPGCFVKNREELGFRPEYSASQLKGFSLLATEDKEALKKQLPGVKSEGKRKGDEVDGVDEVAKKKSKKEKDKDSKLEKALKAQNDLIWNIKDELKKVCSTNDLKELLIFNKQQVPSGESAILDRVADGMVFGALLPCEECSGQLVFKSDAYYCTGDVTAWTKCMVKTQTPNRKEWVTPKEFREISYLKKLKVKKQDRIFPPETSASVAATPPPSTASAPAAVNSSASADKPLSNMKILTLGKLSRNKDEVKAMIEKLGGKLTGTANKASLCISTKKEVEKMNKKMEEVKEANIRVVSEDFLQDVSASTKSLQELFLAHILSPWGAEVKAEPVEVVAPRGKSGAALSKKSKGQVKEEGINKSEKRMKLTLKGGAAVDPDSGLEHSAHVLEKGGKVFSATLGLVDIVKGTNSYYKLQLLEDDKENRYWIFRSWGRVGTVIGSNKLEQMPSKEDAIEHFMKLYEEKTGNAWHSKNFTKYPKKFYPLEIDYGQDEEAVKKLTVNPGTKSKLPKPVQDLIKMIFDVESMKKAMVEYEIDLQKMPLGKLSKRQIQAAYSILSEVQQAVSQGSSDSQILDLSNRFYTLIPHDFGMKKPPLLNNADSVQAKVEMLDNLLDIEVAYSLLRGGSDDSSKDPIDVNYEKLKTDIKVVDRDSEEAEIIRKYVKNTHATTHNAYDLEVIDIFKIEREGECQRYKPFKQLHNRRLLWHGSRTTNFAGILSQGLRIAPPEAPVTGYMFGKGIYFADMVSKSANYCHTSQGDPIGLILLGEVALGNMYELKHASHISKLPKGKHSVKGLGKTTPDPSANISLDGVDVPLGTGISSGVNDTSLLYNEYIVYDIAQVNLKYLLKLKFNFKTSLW

Structure (SMILES)	IC50 (Human PARP-1 enzyme) [µM]	IC50 (PC-3 cells) [µM]	IC50 (HCT116 cells) [µM]	minimal effective concentration (PC3 cells; Homo sapiens, PC-3, 1 h, read-out: EB1 pLAC (converted)) [µM]	PC3 antiproliferative activity pIC50 (PC-3 cells; PC3 cells)	HCT116 antiproliferative activity pIC50 (HCT116 cells; HCT116 cells)	EB1 pLAC (PC3 cells)	IC50 (TANK-2 enzyme) [µM]
Cc1cc2ccc([C@](C)(C#N)[C@H]3CCc4cc(Br)ccc43)cc2[nH]c1=O [Compound 239]	0.501	2.51	2	1	–	–	–	–
Cc1cc2ccc(C(C)(C#N)C3CCc4cc(Br)ccc43)cc2[nH]c1=O (stereo not shown) [Compound 243]	0.316	–	–	–	5.2	5.4	6	–
Cc1cc2ccc([C@@](C)(C#N)[C@H]3CCCc4ccccc43)cc2[nH]c1=O [Compound 384]	0.0501	–	–	–	–	–	–	1
Cc1cc2ccc([C@@](C)(C#N)[C@@H]3CCc4ccc(Br)cc43)cc2[nH]c1=O [Compound 408]	0.251	10	5.01	–	–	–	–	–
